Laboratory results as given in US20250312462A1, “PAK1 DEGRADERS AND METHODS OF USE THEREOF” (INSTITUTE FOR CANCER RESEARCH D/B/A THE RESEARCH INSTITUTE …, priority 2022, published 2025).

Key:
PAK2 [1] = target: T1, PAK2 (Homo sapiens, UniProt Q13177); assay: Z'-LYTE FRET kinase inhibition assay; assay type: biochemical; parameters: PAK2 (full length); purchased Invitrogen PV4565
Procedure: The activity/inhibition of human recombinant PAK1 (kinase domain) or PAK2 (full length) was determined by measuring the phosphorylation of a FRET peptide substrate (Ser/Thr19) labeled with Coumarin and Fluorescein using Z′-LYTE™ assay (Invitrogen). The 10 μL assay mixtures contained 50 mM HEPES (pH 7.5), 0.01% Brij-35, 10 mM MgCl2, 1 mM EGTA, 2 μM FRET peptide substrate, and PAK enzyme (20 pM PAK1; 50 pM PAK2). Incubations were carried out at 22° C. in black polypropylene 384-well plates (Corning Costar). Prior to the assay, enzyme, FRET peptide substrate and serially diluted test compounds were preincubated together in assay buffer (7.5 μL) for 10 minutes, and the assay was initiated by the addition of 2.5 μL assay buffer containing 4×ATP (160 μM PAK1; 480 μM PAK2). Following the 60-minute incubation, the assay mixtures were quenched by the addition of 5 μL of Z′-LYTE™ development reagent, and 1 hour later the emissions of Coumarin (445 nm) and Fluorescein (520 nm) were determined after excitation at 400 nm using an Envision plate reader (Perkin Elmer). […].

EPHA8 = EPHA8 (Homo sapiens, UniProt P29322); assay: KINOMEscan; conditions: read-out: Percent Control
Procedure: (§1) The kinase engagement assay (KINOMEscan®) was performed by DiscoverX assessing binding abilities toward a set of kinases.

LATS1 = LATS1 (Homo sapiens, UniProt O95835); assay: KINOMEscan; conditions: read-out: Percent Control
Procedure: as §1

AMPK-alpha2 = AMPK-alpha2 (Homo sapiens, UniProt P54646); assay: KINOMEscan; conditions: read-out: Percent Control
Procedure: as §1

TAK1 = TAK1 (Homo sapiens, UniProt O43318); assay: KINOMEscan; conditions: read-out: Percent Control
Procedure: as §1

FGFR4 = FGFR4 (Homo sapiens, UniProt P22455); assay: KINOMEscan; conditions: read-out: Percent Control
Procedure: as §1

HIPK4 = HIPK4 (Homo sapiens, UniProt Q8NE63); assay: KINOMEscan; conditions: read-out: Percent Control
Sequence of HIPK4 (Q8NE63 whole entry): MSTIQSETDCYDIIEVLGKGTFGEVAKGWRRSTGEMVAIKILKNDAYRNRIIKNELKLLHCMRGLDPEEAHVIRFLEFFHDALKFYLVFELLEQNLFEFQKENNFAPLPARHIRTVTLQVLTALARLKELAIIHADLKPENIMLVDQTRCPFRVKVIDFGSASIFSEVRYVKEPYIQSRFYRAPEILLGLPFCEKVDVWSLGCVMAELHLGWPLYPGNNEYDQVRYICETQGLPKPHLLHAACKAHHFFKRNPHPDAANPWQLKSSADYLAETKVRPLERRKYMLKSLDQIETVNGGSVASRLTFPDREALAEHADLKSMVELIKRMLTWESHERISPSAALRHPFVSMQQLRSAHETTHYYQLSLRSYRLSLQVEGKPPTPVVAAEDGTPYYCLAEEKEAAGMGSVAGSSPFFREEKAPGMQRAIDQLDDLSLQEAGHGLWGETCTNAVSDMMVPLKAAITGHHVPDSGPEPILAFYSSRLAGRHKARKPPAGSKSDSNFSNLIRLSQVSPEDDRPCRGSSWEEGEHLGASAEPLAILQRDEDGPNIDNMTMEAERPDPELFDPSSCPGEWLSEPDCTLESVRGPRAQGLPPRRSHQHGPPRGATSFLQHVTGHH
Procedure: as §1

NEK5 = NEK5 (Homo sapiens, UniProt Q6P3R8); assay: KINOMEscan; conditions: read-out: Percent Control
Procedure: as §1

YSK4 = YSK4 (Homo sapiens, UniProt Q56UN5); assay: KINOMEscan; conditions: read-out: Percent Control
Procedure: as §1

CTK = CTK (Homo sapiens, UniProt P42679); assay: KINOMEscan; conditions: read-out: Percent Control
Procedure: as §1

DCAMKL1 = DCAMKL1 (Homo sapiens, UniProt O15075); assay: KINOMEscan; conditions: read-out: Percent Control
Sequence of DCAMKL1 (O15075 whole entry): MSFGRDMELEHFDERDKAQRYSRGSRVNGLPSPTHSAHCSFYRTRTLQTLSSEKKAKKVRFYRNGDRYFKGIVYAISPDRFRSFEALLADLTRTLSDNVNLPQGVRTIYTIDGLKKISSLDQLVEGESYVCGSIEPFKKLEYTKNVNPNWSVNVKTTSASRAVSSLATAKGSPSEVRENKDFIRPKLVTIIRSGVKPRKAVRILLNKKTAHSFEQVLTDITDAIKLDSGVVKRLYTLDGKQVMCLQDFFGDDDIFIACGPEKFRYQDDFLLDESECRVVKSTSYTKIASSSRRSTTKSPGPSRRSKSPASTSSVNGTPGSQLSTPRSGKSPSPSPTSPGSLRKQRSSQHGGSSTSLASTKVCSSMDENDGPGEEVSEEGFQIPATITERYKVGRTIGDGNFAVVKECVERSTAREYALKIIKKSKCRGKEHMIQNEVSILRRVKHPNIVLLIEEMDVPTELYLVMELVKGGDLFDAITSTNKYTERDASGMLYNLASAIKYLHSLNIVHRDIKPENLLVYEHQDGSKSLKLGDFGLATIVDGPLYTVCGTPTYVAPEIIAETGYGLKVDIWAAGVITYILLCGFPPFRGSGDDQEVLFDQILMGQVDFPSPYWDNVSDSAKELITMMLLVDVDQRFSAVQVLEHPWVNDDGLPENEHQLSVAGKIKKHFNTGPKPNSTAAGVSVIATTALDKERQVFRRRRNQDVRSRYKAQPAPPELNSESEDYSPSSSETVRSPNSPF
Procedure: as §1

MAPKAPK5 = MAPKAPK5 (Homo sapiens, UniProt Q8IW41); assay: KINOMEscan; conditions: read-out: Percent Control
Procedure: as §1

PDPK1 = PDPK1 (Homo sapiens, UniProt O15530); assay: KINOMEscan; conditions: read-out: Percent Control
Procedure: as §1

AXL = AXL (Homo sapiens, UniProt P30530); assay: KINOMEscan; conditions: read-out: Percent Control
Sequence of AXL (P30530 26-894): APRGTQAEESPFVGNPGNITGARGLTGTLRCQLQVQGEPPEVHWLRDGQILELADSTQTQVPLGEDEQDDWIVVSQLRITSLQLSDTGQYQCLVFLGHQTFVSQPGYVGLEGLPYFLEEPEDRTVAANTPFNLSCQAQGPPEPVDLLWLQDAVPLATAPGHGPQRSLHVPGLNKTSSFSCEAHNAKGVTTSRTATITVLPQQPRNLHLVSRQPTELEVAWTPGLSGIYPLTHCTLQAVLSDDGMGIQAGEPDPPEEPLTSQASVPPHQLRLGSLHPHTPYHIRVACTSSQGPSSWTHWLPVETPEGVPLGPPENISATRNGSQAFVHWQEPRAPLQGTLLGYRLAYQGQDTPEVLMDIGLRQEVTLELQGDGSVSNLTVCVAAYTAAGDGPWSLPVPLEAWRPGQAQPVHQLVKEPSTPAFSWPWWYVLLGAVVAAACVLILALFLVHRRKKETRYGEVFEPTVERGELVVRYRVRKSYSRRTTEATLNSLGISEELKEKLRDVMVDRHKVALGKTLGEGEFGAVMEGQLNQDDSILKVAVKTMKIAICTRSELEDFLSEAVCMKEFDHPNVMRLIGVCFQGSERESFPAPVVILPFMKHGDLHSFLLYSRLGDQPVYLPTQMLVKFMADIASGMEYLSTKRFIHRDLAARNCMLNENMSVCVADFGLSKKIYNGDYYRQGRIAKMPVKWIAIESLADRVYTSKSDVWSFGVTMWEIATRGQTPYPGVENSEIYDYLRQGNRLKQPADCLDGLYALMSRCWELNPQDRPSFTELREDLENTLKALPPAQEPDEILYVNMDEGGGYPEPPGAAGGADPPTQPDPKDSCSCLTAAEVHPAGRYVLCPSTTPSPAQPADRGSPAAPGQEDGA
Procedure: as §1

YSK1 = YSK1 (Homo sapiens, UniProt O00506); assay: KINOMEscan; conditions: read-out: Percent Control
Procedure: as §1

PIK3CA(E545A) = PIK3CA(E545A) (Homo sapiens, UniProt P42336, E545A); assay: KINOMEscan; conditions: read-out: Percent Control
Procedure: as §1

TEC = TEC (Homo sapiens, UniProt P42680); assay: KINOMEscan; conditions: read-out: Percent Control
Procedure: as §1

MLK2 = MLK2 (Homo sapiens, UniProt Q02779); assay: KINOMEscan; conditions: read-out: Percent Control
Sequence of MLK2 (Q02779 whole entry): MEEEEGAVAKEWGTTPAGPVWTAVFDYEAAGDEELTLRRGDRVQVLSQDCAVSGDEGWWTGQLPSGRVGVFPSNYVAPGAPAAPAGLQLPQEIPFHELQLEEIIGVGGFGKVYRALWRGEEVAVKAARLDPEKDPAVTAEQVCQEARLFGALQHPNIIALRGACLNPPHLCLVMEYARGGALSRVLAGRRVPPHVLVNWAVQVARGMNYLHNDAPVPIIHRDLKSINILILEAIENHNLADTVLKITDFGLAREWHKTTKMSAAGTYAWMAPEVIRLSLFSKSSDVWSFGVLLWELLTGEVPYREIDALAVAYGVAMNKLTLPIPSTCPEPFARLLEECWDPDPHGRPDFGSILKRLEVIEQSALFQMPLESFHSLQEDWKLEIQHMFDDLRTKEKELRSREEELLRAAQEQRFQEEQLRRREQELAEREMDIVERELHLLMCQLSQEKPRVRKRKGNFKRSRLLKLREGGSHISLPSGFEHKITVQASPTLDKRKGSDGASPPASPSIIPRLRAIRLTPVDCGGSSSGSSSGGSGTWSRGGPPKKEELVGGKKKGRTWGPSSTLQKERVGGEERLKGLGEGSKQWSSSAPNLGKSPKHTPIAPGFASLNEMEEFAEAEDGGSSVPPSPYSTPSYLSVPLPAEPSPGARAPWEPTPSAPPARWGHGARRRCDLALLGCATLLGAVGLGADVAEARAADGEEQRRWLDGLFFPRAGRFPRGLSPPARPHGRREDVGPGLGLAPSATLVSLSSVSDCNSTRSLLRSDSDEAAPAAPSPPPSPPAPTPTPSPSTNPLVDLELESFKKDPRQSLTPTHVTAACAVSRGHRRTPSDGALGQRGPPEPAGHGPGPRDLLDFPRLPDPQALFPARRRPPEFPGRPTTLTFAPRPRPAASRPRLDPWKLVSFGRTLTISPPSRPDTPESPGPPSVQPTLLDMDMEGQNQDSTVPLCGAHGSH
Procedure: as §1

KIT(D816H) = KIT(D816H) (Homo sapiens, UniProt P10721, D816H); assay: KINOMEscan; conditions: read-out: Percent Control
Procedure: as §1

[2] = target: ABL1(F317I)-nonphosphorylated (Homo sapiens, UniProt P00519, F317I); assay: KINOMEscan; conditions: read-out: Percent Control
Sequence of ABL1(F317I)-nonphosphorylated (P00519 whole entry F317I): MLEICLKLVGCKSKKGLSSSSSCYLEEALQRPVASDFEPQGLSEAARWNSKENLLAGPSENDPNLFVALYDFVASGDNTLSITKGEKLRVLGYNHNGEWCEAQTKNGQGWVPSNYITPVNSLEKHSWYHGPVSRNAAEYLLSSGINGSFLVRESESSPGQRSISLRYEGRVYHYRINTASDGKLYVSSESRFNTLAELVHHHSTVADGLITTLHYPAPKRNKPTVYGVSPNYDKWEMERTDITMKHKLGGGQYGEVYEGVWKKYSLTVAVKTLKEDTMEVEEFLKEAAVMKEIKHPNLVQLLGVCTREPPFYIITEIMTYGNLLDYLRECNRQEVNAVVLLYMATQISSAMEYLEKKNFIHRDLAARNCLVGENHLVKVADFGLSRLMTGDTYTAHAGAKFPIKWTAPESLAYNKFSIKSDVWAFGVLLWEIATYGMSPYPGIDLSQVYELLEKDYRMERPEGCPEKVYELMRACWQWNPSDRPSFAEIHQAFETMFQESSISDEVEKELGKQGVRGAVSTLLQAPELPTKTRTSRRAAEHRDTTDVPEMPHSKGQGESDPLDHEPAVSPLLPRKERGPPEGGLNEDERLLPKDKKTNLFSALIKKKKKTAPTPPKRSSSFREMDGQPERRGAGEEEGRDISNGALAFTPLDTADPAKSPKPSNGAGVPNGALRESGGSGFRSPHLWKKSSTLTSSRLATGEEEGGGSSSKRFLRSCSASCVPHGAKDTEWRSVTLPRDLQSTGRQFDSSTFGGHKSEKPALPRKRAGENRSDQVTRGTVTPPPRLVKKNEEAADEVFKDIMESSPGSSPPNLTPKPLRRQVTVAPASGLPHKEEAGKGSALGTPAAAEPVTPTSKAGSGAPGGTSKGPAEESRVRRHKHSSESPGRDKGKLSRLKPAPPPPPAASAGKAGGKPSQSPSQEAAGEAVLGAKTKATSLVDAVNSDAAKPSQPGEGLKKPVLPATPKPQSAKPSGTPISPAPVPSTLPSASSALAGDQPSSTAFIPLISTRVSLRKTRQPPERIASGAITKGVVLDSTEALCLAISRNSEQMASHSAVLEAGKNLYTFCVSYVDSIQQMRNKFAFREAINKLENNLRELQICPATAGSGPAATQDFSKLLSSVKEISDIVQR
Procedure: as §1

PAK2 [3] = target: T1, PAK2; assay: PAK2 degradation in MCF7 and OVCAR3 cells, immunoblot; assay type: cell-based; parameters: due to their high expression of both PAK1 and PAK2; endogenous in cells; host or cells: MCF7, OVCAR3
Procedure: […]. Cells were incubated overnight then treated with various concentrations of Pak degraders alone or together with bortezomib or lenalidomide for 24 hours. Protein lysates were harvested at the times specified.
Cells were washed once in PBS and lysed in RIPA buffer (50 mM Tris-HCl, 150 mM NaCl, 0.25% (w/v) sodium deoxycholate, 1% (w/v) NP-40, pH 7.5) containing protease inhibitor cocktail (Roche) and phosphatase inhibitor cocktail (Roche) for 30 minutes on ice. Cell lysates were obtained by centrifugation at 13,500 rpm for 15 minutes at 4° C. BCA protein assay (Thermo Scientific) was used to determine protein concentration then equal amounts of total proteins were separated by SDS-PAGE (Bio-Rad) and transferred to PVDF membrane (Thermo Scientific) at 100V for 2 hours. Membranes were blocked in 5% (w/v) non-fat dry milk in tris-buffered saline with 0.1% Tween-20 (TBS-T) for 1 hour and incubated with primary antibody at 4° C. for overnight. […]
After verifying that BJG-05-039 retained specificity for PAK1, its degradation activity in cells was characterized. First, the PAK1 degrader was evaluated in the breast cancer cell line MCF7 and the ovarian cancer cell line OVCAR3 due to their high expression of both PAK1 and PAK2 and their known dependence on PAK1 (Prudnikova, et al. (2016) Oncogene 35:2178-2185; Shrestha, et al. (2012) Oncogene 31:3397-3408). […]

[4] = target: ABL1(E255K)-phosphorylated (Homo sapiens, UniProt P00519, E255K); assay: KINOMEscan; conditions: read-out: Percent Control
Sequence of ABL1(E255K)-phosphorylated (P00519 whole entry E255K): as the sequence (P00519 whole entry F317I) above, with E255K, I317F counted along it
Procedure: as §1

T1 sequence (Q13177 whole entry, the tested form may be a part): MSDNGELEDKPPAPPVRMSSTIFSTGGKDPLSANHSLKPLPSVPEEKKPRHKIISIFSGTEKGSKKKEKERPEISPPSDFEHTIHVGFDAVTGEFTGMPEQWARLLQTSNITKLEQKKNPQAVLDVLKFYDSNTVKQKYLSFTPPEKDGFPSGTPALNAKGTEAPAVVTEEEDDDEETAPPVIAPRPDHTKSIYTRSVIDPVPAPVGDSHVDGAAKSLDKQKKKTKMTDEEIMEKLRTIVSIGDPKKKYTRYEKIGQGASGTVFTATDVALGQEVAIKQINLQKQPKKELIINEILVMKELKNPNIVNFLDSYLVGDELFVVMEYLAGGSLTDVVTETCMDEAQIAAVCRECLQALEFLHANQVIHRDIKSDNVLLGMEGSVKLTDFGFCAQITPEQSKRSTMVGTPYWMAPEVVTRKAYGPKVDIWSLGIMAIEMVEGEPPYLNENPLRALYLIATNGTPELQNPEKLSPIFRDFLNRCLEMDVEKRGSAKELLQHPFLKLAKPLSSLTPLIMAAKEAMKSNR

With `O=C1CCC(N2C(=O)c3cccc(NCCCCCCCCNC(=O)N4CC[C@H](NC5=Nc6cc(F)ccc6N(CC(F)F)c6ccc(Cl)cc65)C4)c3C2=O)C(=O)N1` (stereo partly drawn) [BJG-05-039, (3S)-3-((2-Chloro-5-(2,2-difluoroethyl)-8-fluoro-5H-dibenzo[b,e][1,4]diazepin-11-yl)amino)-N-(8-((2-(2,6-dioxopiperidin-3-yl)-1,3-dioxoisoindolin-4-yl)amino)octyl)pyrrolidine-1-carboxamide] the IC50 (PAK2 [1]) was > 10 µM, the remaining binding at 10 µM (EPHA8) was 84% and the remaining binding at 10 µM (LATS1) was 100%. The remaining binding at 10 µM (AMPK-alpha2) was 100%, the remaining binding at 10 µM (TAK1) was 100% and the remaining binding at 10 µM (FGFR4) was 68%. For the same compound, the remaining binding at 10 µM (HIPK4) was 67%, the remaining binding at 10 µM (NEK5) was 65% and the remaining binding at 10 µM (YSK4) was 93%. The remaining binding at 10 µM (CTK) was 89%, the remaining binding at 10 µM (DCAMKL1) was 77% and the remaining binding at 10 µM (MAPKAPK5) was 100%. The remaining binding at 10 µM (PDPK1) was 86%, the remaining binding at 10 µM (AXL) was 49% and the remaining binding at 10 µM (YSK1) was 83%. For the same compound, the remaining binding at 10 µM (PIK3CA(E545A)) was 100%, the remaining binding at 10 µM (TEC) was 82% and the remaining binding at 10 µM (MLK2) was 97%. For the same compound, the remaining binding at 10 µM (KIT(D816H)) was 100%, the remaining binding at 10 µM [2] was 91% and the PAK2 degradation (PAK2 [3]) was “not PAK2”. The remaining binding at 10 µM [4] was 100%.
